Consider five molecules from US9981964B2 (Agency for Science, Technology and Research, priority 2013, dated 2018).

Entries after “also recorded” stand apart in the source; their conditions may differ. Like-named read-outs stand apart in the source and are kept apart here.

One data set has as its system mammalian PORCN. The data set is described as follows: PORCN-null HT1080 cells transfected with mammalian PORCN, WNT3A and STF reporter, luciferase. Type of data set: cell-based. As to conditions: STF luciferase, FIG. 1. The method, then:
PORCN-null HT1080 cells were transfected with mammalian or Xenopus PORCN expression plasmids, along with WNT3A, STF reporter and mCherry as transfection control. 6 hours after transfection, cells were treated with the compounds or DMSO as indicated, and the following day assayed for luciferase. Xenopus PORCN was resistant to the inhibitory effects of compounds.

A further data set relates to HEK293-STF3A cells. Nature of the data set: STF3A assay (STF luciferase reporter in Wnt3A-expressing HEK293 cells). As to conditions: Homo sapiens, 24 h, 1 day of treatment. It is filed as cell-based. In short, it runs like this: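 HEK293 cells carrying the STF reporter and expressing Wnt3A, seeded 2×10^4 per well overnight, then treated 1 day with compound at final 50 μM to 1.5 nM. Luciferase activity read by luminescence after Steady-Glo reagent, 10 min at room temperature.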
Background: A reporter such as luciferase makes a cellular process visible.

For a further data set, the system named is Palmitoylation of Wnt3a. Nature of the data set: Wnt3A palmitoylation assay (HeLa cells over-expressing V5-Wnt3a, alkyne palmitate, click chemistry). The note with it: 100 nM compound. It is filed as cell-based. The method, then: The assay used to determine the inhibition of the palmitoylation of Wnts by compound was described by Yap et al, (Yap M C, Kostiuk M A, Martin D D, Perinpanayagam M A, Hak P G, Siddam A, Majjigapu J R, Rajaiah G, Keller B O, Prescher J A, Wu P, Bertozzi C R, Falck J R, Berthiaume L G. 2010. Rapid and selective detection of fatty acylated proteins using omega-alkynyl-fatty acids and click chemistry. J Lipid Res. 51(6):1566-1580) with some modification. 3×10^6 HeLa cells were seeded in 10 cm culture dish and incubated at 37° C. overnight. […] After six hours, the cells were washed with PBS and treated with 100 μM alkyne palmitate in medium with 5% BSA. 100 nM compound or DMSO was added and the cells were incubated overnight at 37° C. The cells were lyzed and 600 μg cell lysate was collected and incubated with anti-V5 antibody (Invitrogen) followed by the pull down of V5-Wnt3a with the addition of Protein A/G agarose beads (Thermo scientific). The pulled down lysates containing V5-Wnt3a was click-reacted with biotin-azide (Invitrogen). The biotin-labelled protein lysate was then separated on SDS-PAGE and transferred to a nitrocellulose membrane. The membrane was incubated with primary anti-V5 antibody, followed by secondary anti-mouse Dylight 680 (Thermo scientific) to detect V5-Wnt3a. […]

The subject of the next data set is AsPC-1 cells. The data set is described as follows: Soft agar colony formation assay, AsPC-1. As to conditions: for IC50: Homo sapiens. Type of data set: cell-based. The method, then: (§1) AsPC-1 cells were maintained in RPMI164 supplemented with 10% FBS, 2 mM L-glutamine and P/S (100 units/ml penicillin and 100 μg/ml streptomycin). HPAF-II cells were maintained in MEM (Eagles') supplemented with 10% FBS, 2 mM L-glutamine and P/S (100 units/ml penicillin and 100 μg/ml streptomycin). CFPAC-1 cells were maintained in Iscove MEM supplemented with 10% FBS, 2 mM L-glutamine and P/S (100 units/ml penicillin and 100 μg/ml streptomycin).
(§2) 600 μl of 0.6% agar was added to 24-well plate to form the base layer. Then a middle layer of 0.36% agar (containing 5000 cells and serially diluted compound) was added on to the base layer. Finally 500 μl of fresh growth medium was added to the top of the middle layer. The plates were incubated at 37° C. with 5% carbon dioxide in a humidified incubator for 2 weeks. Formation of colonies was observed using a light microscope. When the colony size was larger than 500 μm, 70 μl MTT (5 mg/ml) was added to each well and the plates were incubated at 37° C. for at least 2 hours. Colonies were counted with GelCount® instrument. The colony counts were plotted against compound concentrations using the GraphPad Prism software. The software was also used to perform non-linear curve fitting and calculation of compound concentration that inhibited 50% colony formation.

The subject of another data set is CFPAC-1 cells. The data set is described as follows: Soft agar colony formation assay, CFPAC-1. It is filed as cell-based. As to conditions: for IC50: Homo sapiens. The method, then:
as §1, §2

Another data set concerns HPAF-II cells. Nature of the data set: Soft agar colony formation assay, HPAF-II. Type of data set: cell-based. The note with it: for IC50: Homo sapiens. As to the method:
as §1, §2

The subject of the next data set is MMTV-Wnt1 tumor. Type of data set: in vivo, BALBc mice. The note with it: for % T/C / % TGI / NTRD / T/C / TRD: Day 14; for tumor growth in treated mice: daily treatment for 14 days, FIG. 2 and FIG. 3. As to the method: 8-10 weeks old Female BALBc mice were anesthetised with 150 mg/kg Ketamine +75 mg/kg Xylazine. Under aseptic conditions, skin near the 4th mammary fat pad was incised, Mammary fat pad was tweaked with forceps and tumor fragment ˜2 mm^3 was implanted. The incision was closed using a tissue adhesive. Animals were randomised into groups of eight and treated daily with the test compounds for 14 days. Tumors were measured in two dimensions using calipers, and volume was calculated using the formula: Tumor Volume (mm^3)=[…]. Maximum tumor volume limit was 2000 mm^3.

The IC50 is the concentration at which inhibition is half-maximal. Turning to `O=C(CN1CCCC2=C1C(=O)N(C1CC1)C2=O)Nc1ccc(-c2cccnc2)cn1` [Compound 14, N-([3,3′-bipyridin]-6-yl)-2-(6-cyclopropyl-5,7-dioxo-2,3,4,5,6,7-hexahydro-1 H-pyrrolo[3,4-b]pyridin-1-yl)acetamide], in the data set on mammalian PORCN, the “inhibition of the activity of mammalian porcupine” value is on record as “inhibit the activity of mammalian porcupine”. Moreover, in the data set with HEK293-STF3A cells, the IC50 was less than 100 nM.
As to `O=C(CN1CCCC2=C1C(=O)N(C1CC1)C2=O)Nc1ccc(-c2cccnc2)nn1` [Compound 43, 2-(6-cyclopropyl-5,7-dioxo-2,3,4,5,6,7-hexahydro-1H-pyrrolo[3,4-b]pyridin-1-yl)-N-(6-(pyridin-3-yl)pyridazin-3-yl)acetamide], the “inhibition of the activity of mammalian porcupine” value in the data set with mammalian PORCN is on record as “inhibit the activity of mammalian porcupine; also recorded: inhibition of the activity of mammalian porcupine”. In addition, in the data set on Palmitoylation of Wnt3a, the “inhibition of palmitoylation of Wnt3a” value is recorded as “inhibited; also recorded: inhibition of Palmitoylation of Wnt3a”. The IC50 in the data set on HEK293-STF3A cells was less than 100 nM; in the data set on AsPC-1 cells (ASPC1, 336 h, AsPC-1, 50% colony growth inhibition, 2 weeks, read-out: Test 1 IC50), 4 nM; with AsPC-1 cells (ASPC1, 336 h, AsPC-1, 50% colony growth inhibition, 2 weeks, read-out: Test 2 IC50), 5 nM; in the data set on AsPC-1 cells (ASPC1, AsPC-1, mean of two independent experiments, read-out: Mean IC50), 5 nM; with CFPAC-1 cells (336 h, CFPAC-1, 50% colony growth inhibition, 2 weeks, read-out: Test 1 IC50) it was 300 nM; in the data set on CFPAC-1 cells (336 h, CFPAC-1, 50% colony growth inhibition, 2 weeks, read-out: Test 2 IC50) it was 140 nM. For the same molecule, the IC50 is 220 nM in the data set with CFPAC-1 cells (CFPAC-1, mean of two independent experiments, read-out: Mean IC50); 4 nM in the data set on HPAF-II cells (336 h, 50% colony growth inhibition, 2 weeks, read-out: Test 1 IC50); 2 nM with HPAF-II cells (336 h, 50% colony growth inhibition, 2 weeks, read-out: Test 2 IC50); 3 nM in the data set with HPAF-II cells (mean of two independent experiments, read-out: Mean IC50). In addition, the Maximum inhibition in the data set on AsPC-1 cells (AsPC-1, colony formation) is reported as 79%; in the data set on CFPAC-1 cells (CFPAC-1, colony formation), 67%; with HPAF-II cells (colony formation), 100%. In addition, the “% T/C” value in the data set with MMTV-Wnt1 tumor (1 mg/Kg daily) amounted to 77.5%; with MMTV-Wnt1 tumor (3 mg/Kg daily), 33.7%; in the data set with MMTV-Wnt1 tumor (10 mg/Kg daily), 18.5%. In addition, the “% TGI” value with MMTV-Wnt1 tumor (1 mg/Kg daily) worked out at 24%; in the data set on MMTV-Wnt1 tumor (3 mg/Kg daily) it was 72%; in the data set on MMTV-Wnt1 tumor (10 mg/Kg daily), 97%. Also, the NTRD in the data set with MMTV-Wnt1 tumor (1 mg/Kg daily), in the data set with MMTV-Wnt1 tumor (3 mg/Kg daily) and with MMTV-Wnt1 tumor (10 mg/Kg daily) was 0/8 each time. For the same molecule, the T/C in the data set with MMTV-Wnt1 tumor (1 mg/Kg daily) was 0.775; with MMTV-Wnt1 tumor (3 mg/Kg daily), 0.337; in the data set with MMTV-Wnt1 tumor (10 mg/Kg daily) it was 0.185. Moreover, the TRD in the data set on MMTV-Wnt1 tumor (1 mg/Kg daily), with MMTV-Wnt1 tumor (3 mg/Kg daily) and with MMTV-Wnt1 tumor (10 mg/Kg daily) was 0/8 throughout. Besides, in the data set with MMTV-Wnt1 tumor, the “tumor growth in treated mice” value was “decreased tumor growth in all the treated mice”.
As for `O=C(CN1CCCC2=C1C(=O)N(C1CC1)C2=O)Nc1ccc(-c2cncc(F)c2)nn1` [Compound 52, 2-(6-cyclopropyl-5,7-dioxo-2,3,4,5,6,7-hexahydro-1H-pyrrolo[3,4-b]pyridin-1-yl)-N-(6-(5-fluoropyridin-3-yl)pyridazin-3-yl)acetamide], the IC50 with HEK293-STF3A cells was less than 100 nM. In the data set on MMTV-Wnt1 tumor, the “tumor growth in treated mice” value is “decreased tumor growth in all the treated mice”.
In turn, `Cc1cnc(-c2ccc(NC(=O)CN3CCCC4=C3C(=O)N(C3CC3)C4=O)nc2)cn1` [Compound 157, 2-(6-cyclopropyl-5,7-dioxo-2,3,4,5,6,7-hexahydro-1H-pyrrolo[3,4-b]pyridin-1-yl)-N-(5-(5-methylpyrazin-2-yl)pyridin-2-yl)acetamide] returned an IC50 with HEK293-STF3A cells of less than 100 nM.
Same read-out and setting: as for `Cc1ccc(-c2ccc(NC(=O)CN3CCCC4=C3C(=O)N(C)C4=O)cn2)cc1` [Compound 158, 2-(6-methyl-5,7-dioxo-2,3,4,5,6,7-hexahydro-1H-pyrrolo[3,4-b]pyridin-1-yl)-N-(6-(p-tolyl)pyridin-3-yl)acetamide], the figure is less than 100 nM.
